Data taken from US10766857B2, “Compound having BLT inhibitory activity and composition, for preventing or treating inflammatory diseases, comprising same as active ingredient” (DONGGUK UNIVERSITY INDUSTRY-ACADEMIC COOPERATION FOUNDATION, priority 2015, dated 2020).

Experiments:
MDA-MB-231 cells = experiment: Matrigel invasion of breast cancer cells; assay type: cell-based
Experimental: (§1) The breast cancer cells such as the MDA-MB-231 cells were obtained from Korean Cell Line Bank (Seoul, Korea), and the MDA-MB-435 cells were provided by J. H. Lee (Asan Medical Center, Seoul, Korea). These cells were cultured in an RPMI 1640 medium (Invitrogen) containing 10% FBS (Life Technologies, Inc.), 1% penicillin (50 units/mL), and an antibiotic antimycotic solution (Life Technologies, Inc.) at 37° C. under a 5% CO2 condition.
(§2) To detect the invasion of breast cancer cells according to the treatment of the compound of the present invention, BioCoat Matrigel Invasion Chambers (BD Biosciences, Bedford, Mass.) were used. 5×10^4 of the breast cancer cells were harvested with trypsin-EDTA, resuspended in 0.5% serum-containing RPMI 1640, and transferred to Matrigel inserts. Five percent serum-containing RPMI 1640 was added to the lower chamber, and the cells were cultured at 37° C. for 36 hours. Each filter was fixed with methanol for 3 minutes, and stained with hematoxylin and eosin for 10 minutes. The invasiveness of the cancer cells was quantified by cell counts on the lower side of the filter under an optical microscope (magnification, 200×). In each analysis, 6 fields were quantified. Each sample was analyzed twice, and the analysis was repeated three times.

MDA-MB-435 cells = experiment: Matrigel invasion of breast cancer cells; assay type: cell-based
Experimental: as §1, §2

**Q.** Which results are given for `CCCCC(=O)N(CC#Cc1ccc(C(=O)N2CCN(C(C)C)CC2)cc1)c1ccccc1` [LMT-696, N-(3-(4-(4-isopropylpiperazine-1-carbonyl)phenyl)prop-2-ynyl)-N-phenylpentaneamide]?
**A.** cancer cell invasion inhibited (MDA-MB-231 cells): 70%; cancer cell invasion inhibited (MDA-MB-435 cells): 56%
